US12129237B2, “Substituted diaminocarboxamide and diaminocarbonitrile pyrimidines, compositions thereof, and methods of treatment therewith” (SIGNAL PHARMACEUTICALS, LLC, priority 2011, dated 2024)

biological target: T1, JNK1 (Homo sapiens, UniProt P45983); experiment: JNK1 biochemical assays (one or more of: time resolved fluorescence, Z'-LYTE Cascade, radioactive); settings: Table 2; JNK1 IC50 activity level; read-out: Act. Level
T1 construct: purchased Carna Biosciences
T1 sequence (P45983 whole entry): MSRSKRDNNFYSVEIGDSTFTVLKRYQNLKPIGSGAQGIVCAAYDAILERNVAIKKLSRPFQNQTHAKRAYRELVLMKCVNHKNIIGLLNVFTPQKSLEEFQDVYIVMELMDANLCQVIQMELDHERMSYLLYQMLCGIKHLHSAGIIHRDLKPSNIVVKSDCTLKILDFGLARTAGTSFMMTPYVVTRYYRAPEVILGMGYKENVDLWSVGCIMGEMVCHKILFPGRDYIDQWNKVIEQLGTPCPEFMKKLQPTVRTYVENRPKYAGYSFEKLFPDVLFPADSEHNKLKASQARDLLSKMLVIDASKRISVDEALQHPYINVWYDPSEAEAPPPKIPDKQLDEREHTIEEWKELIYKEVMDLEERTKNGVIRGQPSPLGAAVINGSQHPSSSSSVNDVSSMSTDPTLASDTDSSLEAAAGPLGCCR

Row | Compound | IC50 [µM]
1 | NC(=O)c1cnc(NCc2cccc(F)c2)nc1Nc1ccccc1 [Example B-39, 2-(3-fluorobenzylamino)-4-(phenylamino)pyrimidine-5-carboxamide] | 0.2 to 0.8
2 | C[C@]1(O)CCC[C@@H](Nc2nc(N[C@H]3CCc4ncccc4C3)ncc2C(N)=O)C1 [Example B-102, 4-((1R,3S)-3-hydroxy-3-methylcyclohexylamino)-2-((S)-5,6,7,8-tetrahydroquinolin-6-ylamino)pyrimidine-5-carboxamide] | < 0.2

same assay, conditions: Table 3; JNK1 IC50 activity level; read-out: Act. Level

Row | Compound | IC50 [µM]
3 | CC(C)(C)Nc1ncc(C#N)c(N[C@@H]2CCC[C@](C)(O)C2)n1 [Example C-59, 2-(tert-butylamino)-4-((1R,3S)-3-hydroxy-3-methylcyclohexylamino) pyrimidine-5-carbonitrile] | 0.2 to 0.8
4 | CC(C)CCNc1nc(N[C@H]2CC[C@H](O)CC2)ncc1C#N [Example C-60, 2-((1r,4r)-4-hydroxycyclohexylamino)-4-(isopentylamino)pyrimidine-5-carbonitrile] | 1 to 10

same assay, conditions: one or more of the JNK1 biochemical assays; read-out: Act. Level (JNK1 IC50 activity level)

Row | Compound | IC50 [µM]
5 | CCC(C)(C)Nc1ncc(C(N)=O)c(N[C@@H]2CC[C@@H](C)[C@H](O)C2)n1 [Example 286, 4-((1R,3R,4R)-3-hydroxy-4-methylcyclohexylamino)-2-(tert-pentylamino)pyrimidine-5-carboxamide] | < 0.2
6 | CC[C@@H](Nc1nc(N[C@H]2CC[C@H](OC)CC2)ncc1C(N)=O)C1CC1 [Example 374, 4-((R)-1-cyclopropylpropylamino)-2-((1r,4R)-4-methoxycyclohexylamino)pyrimidine-5-carboxamide] | < 0.2
7 | C[C@@H](Nc1nc(N[C@H]2CC[C@H](O)CC2)ncc1C(N)=O)C(C)(C)C [Example 281, 4-((R)-3,3-dimethylbutan-2-ylamino)-2-((1r,4R)-4-hydroxycyclohexylamino)pyrimidine-5-carboxamide] | < 0.2
8 | NC(=O)c1cnc(NC23CC(C2)C3)nc1N[C@@H]1CCCC[C@H](O)C1 [Example 346, 2-(bicyclo[1.1.1]pentan-1-ylamino)-4-((1R,3S)-3-hydroxycycloheptylamino)pyrimidine-5-carboxamide] | < 0.2
9 | CCO[C@H]1CC[C@H](Nc2ncc(C(N)=O)c(N[C@@H]3CCC[C@H]3CO)n2)CC1 [Example 259, 2-((1r,4R)-4-ethoxycyclohexylamino)-4-((1R,2R)-2-(hydroxymethyl)cyclopentylamino)pyrimidine-5-carboxamide] | < 0.2
10 | CCO[C@H]1CC[C@H](Nc2ncc(C(N)=O)c(NC(C)(C)C3CC3)n2)CC1 [Example 314, 4-(2-cyclopropylpropan-2-ylamino)-2-((1r,4r)-4-ethoxycyclohexylamino)pyrimidine-5-carboxamide] | < 0.2
11 | CC(C)(C)C(C)(C)Nc1nc(N[C@H]2CC[C@H](O)CC2)ncc1C(N)=O [Example 334, 2-((1r,4r)-4-hydroxycyclohexylamino)-4-(2,3,3-trimethylbutan-2-ylamino)pyrimidine-5-carboxamide] | < 0.2
12 | CC(C)(C)Nc1nc(NC23CCC(O)(CC2)CC3)ncc1C(N)=O [Example 237, 4-(tert-butylamino)-2-(4-hydroxybicyclo[2.2.2]octan-1-ylamino)pyrimidine-5-carboxamide] | < 0.2
13 | CC(C)(C)Nc1nc(N[C@@H]2CCC[C@H](O)C2)ncc1C(N)=O [Example 307, 4-(tert-butylamino)-2-((1R,3S)-3-hydroxycyclohexylamino)pyrimidine-5-carboxamide] | < 0.2

same assay, conditions: tested in one or more of the JNK1 biochemical assays; read-out: Act. Level (JNK1 biochemical assay IC50 activity level)

Row | Compound | IC50 [µM]
14 | CO[C@@H]1CCC[C@@H](Nc2ncc(C(N)=O)c(N[C@@H]3CCC[C@H](O)C3)n2)CC1 [Example A-201, 4-((1R,3S)-3-hydroxycyclohexylamino)-2-((1R,4R)-4-methoxycycloheptylamino)pyrimidine-5-carboxamide] | < 0.2
15 | NC(=O)c1cnc(N[C@H]2CC[C@H](O)CC2)nc1N[C@@H]1CCCC[C@H](O)C1 [Example A-171, 4-((1R,3S)-3-hydroxycycloheptylamino)-2-((1r,4R)-4-hydroxycyclohexylamino)pyrimidine-5-carboxamide] | < 0.2
